Source: ChEMBL document CHEMBL4507268 (2021)

Experiments:
[1] = biological target: T1, Dual specificity mitogen-activated protein kinase kinase 7 (Homo sapiens) (UniProt O14733); details: Compound concentration 1.0 uM
T1 sequence (whole entry): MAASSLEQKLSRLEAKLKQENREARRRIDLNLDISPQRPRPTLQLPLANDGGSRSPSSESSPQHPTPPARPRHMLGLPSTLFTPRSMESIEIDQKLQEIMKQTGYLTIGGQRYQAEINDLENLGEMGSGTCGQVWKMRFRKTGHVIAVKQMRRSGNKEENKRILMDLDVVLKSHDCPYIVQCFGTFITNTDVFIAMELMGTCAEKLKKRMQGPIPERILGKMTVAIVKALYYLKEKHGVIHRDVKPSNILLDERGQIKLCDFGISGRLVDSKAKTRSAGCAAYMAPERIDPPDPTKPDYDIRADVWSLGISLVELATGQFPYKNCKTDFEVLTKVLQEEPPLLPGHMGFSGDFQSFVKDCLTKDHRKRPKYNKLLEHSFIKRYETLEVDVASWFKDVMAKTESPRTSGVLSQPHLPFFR

[2] = biological target: Protein kinase C eta type (Homo sapiens) (UniProt P24723); details: Compound concentration 1.0 uM
Protein kinase C eta type (Homo sapiens), sequence (P24723 whole entry): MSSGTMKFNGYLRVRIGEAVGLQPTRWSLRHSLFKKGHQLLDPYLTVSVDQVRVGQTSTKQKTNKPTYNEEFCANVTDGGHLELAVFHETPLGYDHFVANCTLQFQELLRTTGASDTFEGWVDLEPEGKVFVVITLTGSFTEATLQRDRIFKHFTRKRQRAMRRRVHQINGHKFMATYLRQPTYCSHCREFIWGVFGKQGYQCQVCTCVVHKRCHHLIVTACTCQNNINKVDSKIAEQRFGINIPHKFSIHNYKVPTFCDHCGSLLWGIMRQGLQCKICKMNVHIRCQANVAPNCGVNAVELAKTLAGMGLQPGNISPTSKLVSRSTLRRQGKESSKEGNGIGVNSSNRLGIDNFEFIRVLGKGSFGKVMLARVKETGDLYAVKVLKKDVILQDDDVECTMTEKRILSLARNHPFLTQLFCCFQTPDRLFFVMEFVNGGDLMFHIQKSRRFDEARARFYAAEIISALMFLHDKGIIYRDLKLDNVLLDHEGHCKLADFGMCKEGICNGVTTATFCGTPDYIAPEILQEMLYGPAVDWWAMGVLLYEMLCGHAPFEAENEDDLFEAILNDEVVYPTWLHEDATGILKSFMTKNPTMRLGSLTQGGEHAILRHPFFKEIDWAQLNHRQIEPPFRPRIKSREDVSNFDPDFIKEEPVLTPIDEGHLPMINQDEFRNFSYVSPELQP

CN1CCN(c2cnc3c(C4CCN(C(=O)c5ccc(OC(F)(F)F)cc5N)CC4)ncnc3c2)CC1 [BAY-885]
% residual kinase activity [1]: 106% | % residual kinase activity [2]: 115%
